From patent US11220527B2, “Peptides derived from the propeptide NTSR3 and their use in the treatment of depression” (CENTRE NATIONAL DE LA RECHERCHE SCIENTIFIQUE, priority 2016, dated 2022)
Where no end group is shown, it is not given here.

Molecular target: T1, TREK-1 channel (Homo sapiens, UniProt O95069)
T1 sequence (O95069 1-426): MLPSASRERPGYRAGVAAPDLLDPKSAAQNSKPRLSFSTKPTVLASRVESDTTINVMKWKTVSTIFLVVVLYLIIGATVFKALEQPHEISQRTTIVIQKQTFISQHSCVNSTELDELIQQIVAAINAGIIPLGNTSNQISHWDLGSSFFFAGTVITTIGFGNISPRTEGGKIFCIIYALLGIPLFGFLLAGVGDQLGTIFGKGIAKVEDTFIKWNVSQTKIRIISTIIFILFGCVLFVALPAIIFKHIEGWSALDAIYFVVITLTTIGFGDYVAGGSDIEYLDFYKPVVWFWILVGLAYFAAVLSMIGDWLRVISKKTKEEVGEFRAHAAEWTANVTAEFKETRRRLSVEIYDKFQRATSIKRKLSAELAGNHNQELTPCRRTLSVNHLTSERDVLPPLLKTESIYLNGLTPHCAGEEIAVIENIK
Experiment: Whole-cell patch clamp of TREK-1 channel activity in hTREK-1/HEK293 cells
Assay type: cell-based
Set-up: expressed in transfected cells
Conditions: dose-response measured at 0 mV, sigmoidal fit, FIG. 2; read-out: half-effect concentration (IC50) of TREK-1 channel activity inhibition
Method: All experiments measuring the effect of spadin analogs and spadin were performed on ßTC3 or LNCaP or HEK293 cells stably transfected with the TREK-1 channel, hTREK-1/HEK293. The hTREK-1/HEK293 cell line was prepared in the laboratory. These cells also express a reporter gene: E-Green Fluorescent Protein (EGFP) enabling their visualization.
These cells were seeded at a density of 20,000 cells/dish of 35 mm diameter, 24 to 72 hours before being used.
The HEK293 cells were cultured in DMEM medium (Gibco)/10% fetal calf serum (FCS, ICN)/1% streptomycin+penicillin mixture (Gibco)/1% glutamax (Gibco)/0.5 mg/mL of G418 (Sigma) at 37° C. in the presence of 5% CO2.
The LNCaP cells were cultured in DMEM medium (Gibco)/10% fetal calf serum (FCS, ICN)/1% streptomycin+penicillin mixture (Gibco)/1% glutamax (Gibco)/at 37° C. in the presence of 5% CO2. […] From day 2 to day 4, the cells were measured by electrophysiological methods.
All measurements were made at room temperature, i.e. at 21-22° C. The hTREK-1/HEK293 cells were identified by the fluorescence emitted by EGFP after excitation at 480 nm. […]
The cell culture medium was replaced with a solution 150 mM NaCl, 5 mM KCl, 3 mM MgCl2, 1 mM CaCl2, 10 mM HEPES/NaOH pH 7.4 containing 10 mM tetraethylammonium chloride, 3 mM 4-aminopyridine. […] The resting potential of the membrane of the measured cell was set at −80 mV. […]

Substance: AVSWGLR [G/A-PE(22-28), AVSWGLR]
- IC50: 0.12 nM
